Results as given in US20080026486A1, “Assay Methods, Materials and Preparations” (priority 2004, published 2008).

Key:
[1] = tested on: carbonic anhydrase II (CAII); assay: Detection of small molecules by QCRS on CAII surface; assay type: binding; settings: for frequency shift on CAII surface: 12.5 μM
Protocol: The CAII surface was then used to capture 4-carboxybenzenesulfonamide (CBS […] in running PBSS buffer+0.25% MeOH).
The same CAII surface was used to detect 12.5 μM 4-carboxybenzenesulfonamide, and 12.5 μM 5-(dimethylamino)-1-naphthalenesulfonamide.

[2] = tested on: mouse anti-biotin IgG; assay: Detection of proteins by SPR: biotinylated BSA on Dextran T70-COOH-PDEA (428018) surfaces; assay type: binding; settings: 10 μg/ml
Protocol: 4 flow cells having polymer treated surfaces were prepared. Flow cells (FC) 1, 2 & 3—were all activated by exposure for 7 min to […] (200 mM/50 mM). FC 3 only was then treated for 7 min with 50 μg/ml mouse anti-biotin IgG in 10 mM NaOAc buffer pH 4.5. FC 2 only was coupled to 50 μg/ml an irrelevant mouse monoclonal IgG in 10 mM NaOAc buffer pH 4.5 (7 minute exposure). FC 1, 2, 3—were capped by treatment for 5 min with ethanolamine (1 M, pH 8.5). FC 4 comprised untreated polymer.
Dextran T70-COOH-PDEA (428018) was deposited and mouse anti-biotin IgG was immobilised using the same procedure as in Example 7. The measurement of the immobilisation is shown in FIG. 12, which again is a graph of response (RU) against time (seconds).

## NS(=O)(=O)c1ccc(C(=O)O)cc1 [4-carboxybenzenesulfonamide]
[1]
  frequency shift on CAII surface: 2.5 Hz
[1]; 25 μm in running PBSS buffer + […] MeOH
  frequency shift on capture by CAII surface: 6 Hz

## biotinylated BSA: biotinylated bovine serum albumin used as analyte
[2]; FC3
  binding to anti-biotin IgG surface (FC3): Specific binding occurs
[2]; capped polymer, irrelevant mouse IgG, unactivated polymer
  binding to control surfaces (FC1, 2 and 4): minimal non-specific binding

## CN(C)c1cccc2c(S(N)(=O)=O)cccc12 [5-(dimethylamino)-1-naphthalenesulfonamide]
[1]
  frequency shift on CAII surface: 1.2 Hz
